Where a name gives a salt, the structure may show the parent alone. Read-outs that look alike come from different tables or passages of the source.
Key:
[1] = system: human hepatoma cell line Huh7; test: Cytotoxicity in Huh7 cells (ATPLite); format: cell-based; settings: 96 h incubation, read-out: CC50, nM (gT1b)
Method: (§1) Cytotoxicity of the disclosed azoles was tested in experiments in the human hepatoma cell line Huh7. The amount of living cells was determined with the help of ATPLite kit (Perkin Elmer, Boston, USA) in accordance with manufacturer instructions. Cytotoxic action was estimated by seeding the cells into black microplate with transparent bottom (96 wells, 10^4 cells to each well). Three independent repeatings were used for each bis-azole. The tested bis-azoles were added in 18 h, after that the cells were incubated together with the compounds for 96 h. Each well was washed two times with phosphate buffered saline (0.2 ml/well) and then the cells were lysed by addition of cell buffer (50 μl/well) (all mentioned reagents are included in ATPLite kit). The microplate was incubated for 5 min on a rotating platform at 600 r/min, after that 50 μl of substrate solution (a part of ATPLite kit) was added into each well. The microplate was incubated for additional 5 min on a rotating platform at 600 r/min, kept for 10 min in the dark, after that luminescence was measured using TopCount NXT instrument (Packard, Perkin Elmer).
(§2) CC50 Value corresponding to bis-azole concentration at which 50% of cells were ruined was used as quantitative characteristic for cytotoxicity estimation. Calculation of CC50 value: for calculation of inhibition effectiveness (% Inh) the following equation was used: % Inh=[(L^pos−L^ex)/L^pos−L^neg)]*100%, where L^pos—positive control, luminescence in the wells with cells without compounds; L^neg—negative control, luminescence in the wells with medium without cells; L^ex—luminescence in wells with a compound of definite concentration. Then, CC50 values were calculated with the help of XLfit 4 program. Test results for novel azoles of the general formula 1 testify their high (nanomolar) or very high (picomolar) activity.

[2] = system: subgenomic RNA-replicon HCV (genotype 1b (gT1b), don Con1); test: Antiviral activity in Huh7 HCV subgenomic replicon cells, immunoenzymatic assay (IEA); format: cell-based, hepatitis C virus; settings: Huh7 cells with HCV gT1b replicon, 3 days incubation
Method: Antiviral activity of substituted azoles of the general formula 1 was determined in the human hepatoma cell line Huh7, comprising subgenomic RNA-replicon HCV (genotype 1b (gT1b), don Con1). A version of immumoenzymatic assay (IEA) on viral protein NS5A in 96-well plate was used as an experimental method. Cytotoxicity of the compounds was estimated in parallel regime. Cells Huh7 were seeded in 96-well plate (7.5×10^3 cells to each well in 100 μl of culture medium). Solutions of the tested compounds in DMEM medium {DMEM) 1×; Source: Cellgro; Catalogue: 10-013-CV} were prepared immediately before use. Eleven serial three fold dilutions with variation of concentrations from 20 nM to 0.2 pM were prepared. In 4 hours after seeding, serial dilutions of the compounds were added to the cells (100 μl to each well). Final concentration of tested compounds was varied from 10 nM to 0.1 pM, and DMSO—0.5%. If it was necessary, higher concentrations of the disclosed azoles were investigated. Each dilution of the compound was tested on two identical wells. Then the cells were incubated for three days at 37° C./5% CO2 and fixed by addition of acetone/methanol (1:1) mixture in amount of 250 μl/well. In 1 min the cells were washed 3 times with PBS (Phosphate Buffered Saline) solution. Then the cells were blocked by addition of 10% fetal calf serum in PBS solution in amount of 150 μl/well for 1 h at room temperature. Then, the cells were incubated with mouse monoclonal antibodies to cor-antigen HCV, don C7-50 (Source: Affinity BioReagents; Catalogue: MA1-080) (100 μl/well, working dilution—1:500 in 10% fetal calf serum in PBS solution) for 2 h at 37° C. The cells were washed 6 times with PBS/0.05% Tween 20 solution, then, they were incubated for 1 h with goat anti-mouse immunoglobulin antibodies (conjugated with horseradish peroxidase, 100 μl/well, working dilution—1:2500 in 10% fetal calf serum in PBS solution). The cells were washed 6 times with PBS/0.05% Tween 20 solution, once with PBS solution, after that substrate (1 tablet of o-phenylenediamine (oPD)+12 ml citrate/phosphate buffer+5 μl 30% H2O2) in amount of 100 μl/well was added. The plates were kept for 30 min in the dark at room temperature. The reaction was arrested by the addition of 2N H2SO4 in amount of 100 μl/well, and optical density (wavelength 490 nm) was measured by means of multiscan plate reader Victor3 V 1420 (Perkin Elmer). IC50 values (azole concentration, lowering the level of virus RNA-replicon on 50%) for every tested azole were calculated with the help of XLfit 4 program.

[3] = Cytotoxicity in Huh7 cells (ATPLite); format: cell-based, human; settings: human, Huh7 cells (human hepatoma cell line), 96 h incubation, read-out: CC50, nM (gT1b)
Method: as §1, §2

COC(=O)N[C@H](C(=O)N1CCC[C@H]1c1ncc(C#CC#Cc2ccc(-c3cnc([C@@H]4CCCN4C(=O)[C@@H](NC(=O)OC)C(C)C)[nH]3)cc2)[nH]1)C(C)C [1.1•2HCl, [(1S)-1-[[(2S)-2-[5-[4-[4-[2-[(2S)-1-[(2S)-2-[(Methoxycarbonyl)amino]-3-methyl-1-oxobutyl]-2-pyrrolidinyl]-1H-imidazol-5-yl]-1,3-butadiynyl]phenyl]-1H-imidazol-2-yl]-1-pyrrolidinyl]carbonyl]-2-methylpropyl]-carbamic acid methyl ester dihydrochloride]
CC50 ([1]; dihydrochloride): 85100 nM
IC50 ([2]; dihydrochloride): 0.0034 nM

COC(=O)N[C@H](C(=O)N1CCC[C@H]1c1ncc(-c2ccc(C#CC#Cc3cnc([C@@H]4CCCN4C(=O)[C@@H](NC(=O)OC)C(C)C)[nH]3)cc2)[nH]1)c1ccccc1 [1.3•2HCl, Methyl (5)-[(S)-2-(5-{4-[4-(2-{(S)-1-[(S)-2-(methoxycarbonylamino)-3-methylbutanoyl]pyrrolidin-2-yl}-3H-imidazol-4-yl)buta-1,3-diynyl]phenyl}-1H-imidazol-2-yl)pyrrolidin-1-yl]-2-oxo-1-phenylethylcarbamate dihydrochloride]
CC50 [1]: > 10000 nM
IC50 [2]: 0.0054 nM

COC(=O)N[C@H](C(=O)N1CCC[C@H]1c1ncc(C#CC#Cc2ccc3cc(-c4cnc([C@@H]5CCCN5C(=O)[C@@H](NC(=O)OC)C(C)C)[nH]4)ccc3c2)[nH]1)C(C)C [1.6•2HCl, Methyl [(S)-1-((S)-2-{5-[2-(4-{2-[(S)-1-((S)-2-methoxycarbonylamino-3-methyl-butyryl)-pyrrolidin-2-yl]-3H-imidazol-4-yl}-buta-1,3-diynyl)-naphthalen-6-yl]-1H-imidazol-2-yl}-pyrrolidine-1-carbonyl)-2-methyl-propyl]-carbamate dihydrochloride]
CC50 at 96 h [3]: > 10000 nM
IC50 ([2]; Hepatitis C virus, Huh-7, 72 h): 0.0046 nM

COC(=O)N[C@H](C(=O)N1CCC[C@H]1c1ncc(C#CC#Cc2cccc3c(-c4cnc([C@@H]5CCCN5C(=O)[C@@H](NC(=O)OC)C(C)C)[nH]4)cccc23)[nH]1)C(C)C [1.7•2HCl, Methyl [(S)-1-((S)-2-{5-[5-(4-{2-[(S)-1-((S)-2-methoxycarbonylamino-3-methyl-butyryl)-pyrrolidin-2-yl]-3H-imidazol-4-yl}-buta-1,3-diynyl)-naphthalen-1-yl]-1H-imidazol-2-yl}-pyrrolidine-1-carbonyl)-2-methyl-propyl]-carbamate dihydrochloride]
CC50 at 96 h [3]: > 10000 nM
IC50 ([2]; Hepatitis C virus, Huh-7, 72 h): 0.0036 nM

COC(=O)N[C@H](C(=O)N1CCC[C@H]1c1ncc(C#CC#Cc2ccc(-c3cnc([C@@H]4CCCN4C(=O)[C@@H](NC(=O)OC)C(C)C)[nH]3)c3ccccc23)[nH]1)C(C)C [1.8•2HCl, Methyl [(S)-1-((S)-2-{5-[4-(4-{2-[(S)-1-((S)-2-methoxycarbonylamino-3-methyl-butyryl)-pyrrolidin-2-yl]-3H-imidazol-4-yl}-buta-1,3-diynyl)-naphthalen-1-yl]-1H-imidazol-2-yl}-pyrrolidine-1-carbonyl)-2-methyl-propyl]-carbamate dihydrochloride]
CC50 at 96 h [3]: > 10000 nM
IC50 ([2]; Hepatitis C virus, Huh-7, 72 h): 0.0048 nM

COC(=O)N[C@H](C(=O)N1CCC[C@H]1c1nc(C#CC#Cc2ccc(-c3c[nH]c([C@@H]4CCCN4C(=O)[C@@H](NC(=O)OC)C(C)C)n3)s2)c[nH]1)C(C)C [1.9•2HCl, [(S)-1-((S)-2-{4-[4-(5-{2-[(S)-1-((S)-2-Methoxycarbonylamino-3-methyl-butyryl)-pyrrolidin-2-yl]-1H-imidazol-4-yl}-thiophen-2-yl)-buta-1,3-diynyl]-1H-imidazol-2-yl}-pyrrolidine-1-carbonyl)-2-methyl-propyl]-carbamic acid methyl ester dihydrochloride]
CC50 at 96 h [3]: > 10000 nM
IC50 ([2]; Hepatitis C virus, Huh-7, 72 h): 0.0032 nM

COC(=O)N[C@H](C(=O)N1CCC[C@H]1c1ncc(C#CC#Cc2csc3c(-c4cnc([C@@H]5CCCN5C(=O)[C@@H](NC(=O)OC)C(C)C)[nH]4)csc23)[nH]1)C(C)C [1.10•2HCl, Methyl [(S)-1-((S)-2-{5-[6-(4-{2-[(S)-1-((S)-2-Methoxycarbonylamino-3-methyl-butyryl)-pyrrolidin-2-yl]-3H-imidazol-4-yl}-buta-1,3-diynyl)-thieno[3,2-b]thiophen-3-yl]-1H-imidazol-2-yl}-pyrrolidine-1-carbonyl)-2-methyl-propyl]-carbamate dihydrochloride]
CC50 at 96 h [3]: > 10000 nM
IC50 ([2]; Hepatitis C virus, Huh-7, 72 h): 0.002 nM

COC(=O)N[C@H](C(=O)N1CCC[C@H]1c1ncc(C#CC#Cc2ccc(-c3cnc([C@@H]4CCCN4C(=O)[C@@H](NC(=O)OC)C(C)C)[nH]3)cc2)[nH]1)C(C)C [Compound 1.1, [(1S)-1-[[(2S)-2-[5-[4-[4-[2-[(2S)-1-[(2S)-2-[(methoxycarbonyl)amino]-3-methyl-1-oxobutyl]-2-pyrrolidinyl]-1H-imidazol-5-yl]-1,3-butadiynyl]phenyl]-1H-imidazol-2-yl]-1-pyrrolidinyl]carbonyl]-2-methylpropyl]-carbamic acid methyl ester]
CC50 [1]: > 10000 nM
IC50 ([2]; Hepatitis C virus, Huh-7, 72 h): 0.0031 nM

Methyl (R)-[(S)-2-(5-{4-[4-(2-{(S)-1-[(S)-2-(methoxycarbonylamino)-3-methylbutanoyl]pyrrolidin-2-yl}-3H-imidazol-4-yl)buta-1,3-diynyl]phenyl}-1H-imidazol-2-yl)pyrrolidin-1-yl]-2-oxo-1-phenylethylcarbamate dihydrochloride [1.4•2HCl]
CC50 [1]: > 10000 nM
IC50 [2]: 0.0018 nM

Methyl (S)-[(S)-2-(5-{4-[4-(2-{(S)-1-[(S)-2-(methoxycarbonylamino)-3-methylbutanoyl]pyrrolidin-2-yl}-3H-imidazol-4-yl)buta-1,3-diynyl]phenyl}-1H-imidazol-2-yl)pyrrolidin-1-yl]-2-oxo-1-phenylethylcarbamate dihydrochloride [1.5•2HCl]
CC50 [1]: > 10000 nM
IC50 [2]: 0.0082 nM
